# In patent USRE37781E1, “Substituted cyclic carbonyls and derivatives thereof useful as retroviral protease inhibitors” (DuPont Pharmaceuticals Company, priority 1991, dated 2002):
# Read-outs that look alike come from different tables or passages of the source.
# Legend:
# [1] = test system: HIV-1 (RF) in MT-2 cells; assay: microbe, parasite or virus in culture; format: cell-based
# Procedure, shortened: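 Read-out: gag and pol viral RNA captured by 5′-biotinylated oligonucleotides on streptavidin-coated wells, detected with alkaline phosphatase-linked reporter oligonucleotides, calibrated against BH10 in vitro transcripts. Virus stocks (RF, MN, IIIB) come from H9 cultures; MT-2 host cells kept in RPMI 1640, 5% FCS.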
# [2] = biological target: T1, HIV protease (Human immunodeficiency virus type 1 group M subtype B, UniProt P04585); assay: biochemical; design: species or system HIV-1
# T1 construct: plasmid containing HIV protease under the control of an inducible T7 promoter; made in house; host or cells: E. coli (inclusion bodies, T7 promoter)
# Protocol: HIV Protease Inhibition Assay—Spectroscopic Method
# Inclusion bodies were solubilized in 8M urea, 50 mM tris pH 8.0. Protease activity was recovered by dilution 20-fold into buffer containing 50 mM sodium acetate pH 5.5, 1 mM EDTA, 10% glycerol and 5% ethylene glycol. Enzyme was used at a final concentration of 1.0-10 ug/ml.
# Stock solutions of 10 mM were prepared in DMSO.
# All further dilutions were done in DMSO.
# [3] = Human immunodeficiency virus 1, MT2, Table 1e, read-out: IC90
# [4] = Human immunodeficiency virus 1, MT2, 24 h, Table 1d, upper part, read-out: IC90
# [5] = Table 1d, upper part, read-out: Ki
smiles,measurement,setting,value
C=CCN1C(=O)N(CC=C)[C@H](Cc2ccccc2)[C@H](O)C1C(F)Cc1ccccc1 (stereo partly shown) [Example 7W],IC90,[1]; [3],10 to 100 µg/mL
same,Ki,"[2]; Table 1e, read-out: Ki",0.01 to 1 µM
CS(=O)(=O)OC1C(O)C(Cc2ccccc2)N(Cc2ccc3ccccc3c2)C(=O)N(Cc2ccc3ccccc3c2)C1Cc1ccccc1 (stereo not shown) [Example 7o],IC90,[1]; [4],< 10 µg/mL
same,Ki,[2]; [5],0.01 to 1 µM
O=C1N(CCCc2ccccc2)C(Cc2ccccc2)C(O)C(O)C(Cc2ccccc2)N1CCCc1ccccc1 (stereo not shown) [Example 1AS],Ki,"[2]; Table 1a, read-out: Ki",0.01 to 1 µM
CC(C)=CCN1C(=O)NC(Cc2ccccc2)C(O)C(O)C1Cc1ccccc1 (stereo not shown) [Example 1AE],Ki,"[2]; Table 1a, read-out: Ki",< 0.01 µM
O=C1N(Cc2ccccc2)C(Cc2ccccc2)C(O)C2C(Cc3ccccc3)N12 (stereo not shown) [Example 21D],IC90,[1]; Table 2j,++/+ (The ++/+ is used in the cases where an IC90 was determined to be >50 μg/mL)
same,Ki,"[2]; Table 2j, read-out: Ki",> 1 µM
O=C1N(CC2CC2)C(C(F)Cc2ccccc2)[C@@H](O)[C@@H](Cc2ccccc2)N1CC1CC1 (stereo partly shown) [Example 8B],IC90,[1]; [3],< 10 µg/mL
same,Ki,"[2]; Table 1e, read-out: Ki",0.01 to 1 µM
C=CCN1C(=O)N(CCCC)C(Cc2ccccc2)C2OS(=O)OC2C1Cc1ccccc1 (stereo not shown) [Example 7D],IC90,[1]; [4],10 to 100 µg/mL
same,Ki,[2]; [5],< 0.01 µM
CC(=O)OC1C(OC(C)=O)C(Cc2ccccc2)N(Cc2ccc3ccccc3c2)C(=O)N(Cc2ccc3ccccc3c2)C1Cc1ccccc1 (stereo not shown) [Example 7J],IC90,[1]; [4],> 100 µg/mL
same,Ki,[2]; [5],0.01 to 1 µM
C=CCN1C(=O)N(CC=C)C(Cc2ccccc2)C(OC(C)=O)C(O)C1Cc1ccccc1 (stereo not shown) [Example 7A],IC90,[1]; [4],< 10 µg/mL
same,Ki,[2]; [5],> 1 µM
O=C1N(CC2CC2)C(Cc2ccccc2)C2OS(=O)OC2C(Cc2ccccc2)N1CC1CC1 (stereo not shown) [Example 7F],IC90,[1]; [4],< 10 µg/mL
same,Ki,[2]; [5],< 0.01 µM
NC(=O)c1cccc(CN2C(=O)N3C(Cc4ccccc4)C3C(O)C2Cc2ccccc2)c1 (stereo not shown) [Example 21G],IC90,[1]; Table 2j,++ (++=10 to 100 μg/mL)
same,Ki,"[2]; Table 2j, read-out: Ki",0.01 to 1 µM
NC(=O)c1cccc(CN2C(=O)N(Cc3cccc(C(N)=O)c3)C(Cc3ccccc3)C(O)C2CCc2ccccc2)c1 (stereo not shown) [Example 8AP],IC90,[1]; [3],> 100 µg/mL
same,Ki,"[2]; Table 1e, read-out: Ki",> 1 µM
COCCOCCOCCN1C(=O)NC(Cc2ccccc2)C(O)C(O)C1Cc1ccccc1 (stereo not shown) [Example 1R],Ki,"[2]; Table 1a, read-out: Ki",> 1 µM
O=C1N(Cc2ccc3ccccc3c2)C(Cc2ccccc2)C2OC(=S)OC2C(Cc2ccccc2)N1Cc1ccc2ccccc2c1 (stereo not shown) [Example 7N],IC90,[1]; [4],> 100 µg/mL
same,Ki,[2]; [5],> 1 µM
O=C1N(Cc2ccc3ccccc3c2)C(Cc2ccccc2)C2OS(=O)OC2C(Cc2ccccc2)N1Cc1ccc2ccccc2c1 (stereo not shown) [Example 7M],IC90,[1]; [4],< 10 µg/mL
same,Ki,[2]; [5],< 0.01 µM
O=C1N(Cc2ccccc2)C(CCc2ccccc2)[C@@H](O)[C@@H](Cc2ccccc2)N1Cc1ccccc1 (stereo partly shown) [Example 8AD],IC90,[1]; [3],< 10 µg/mL
same,Ki,"[2]; Table 1e, read-out: Ki",0.01 to 1 µM
CN1C(=O)N(Cc2ccccc2)C(Cc2ccccc2)C(O)C(O)C1Cc1ccccc1 (stereo not shown) [Example 1AY],Ki,"[2]; Table 1a, read-out: Ki",0.01 to 1 µM
O=C1N(Cc2cccc(OCc3ccccc3)c2)C(Cc2ccccc2)C(O)C(C(F)Cc2ccccc2)N1Cc1cccc(OCc2ccccc2)c1 (stereo not shown) [Example 8E],Ki,"[2]; Table 1e, read-out: Ki",0.01 to 1 µM
O=C1N(Cc2ccncc2)C(Cc2ccccc2)C(O)C(O)C(Cc2ccccc2)N1Cc1ccncc1 (stereo not shown) [Example 1AI],Ki,"[2]; Table 1a, read-out: Ki",0.01 to 1 µM
C=CCN1C(=O)N(CC2CC2)C(Cc2ccccc2)C(O)C(O)C1Cc1ccccc1 (stereo not shown) [Example 1AW],Ki,"[2]; Table 1a, read-out: Ki",< 0.01 µM
CC(C)=CCN1C(=O)N(C)C(Cc2ccccc2)C(O)C(O)C1Cc1ccccc1 (stereo not shown) [Example 2D],Ki,"[2]; Table 2A, read-out: Ki",0.01 to 1 µM
same,Ki,"[2]; second table headed Table 2A, read-out: Ki",0.01 to 1 µM
O=C1N(Cc2ccccc2)C(Cc2ccccc2)C(OCc2ccccc2)C2C(Cc3ccccc3)N12 (stereo not shown) [Example 21C],Ki,"[2]; Table 2j, read-out: Ki",0.01 to 1 µM
COCCOCO[C@H]1[C@@H](Cc2ccccc2)N(Cc2ccc3ccccc3c2)C(=O)N(Cc2ccc3ccccc3c2)[C@@H]1C(F)Cc1ccccc1 (stereo partly shown) [Example 8D],Ki,"[2]; Table 1e, read-out: Ki",0.01 to 1 µM
CC(C)CCCC(C)CCN1C(=O)N(CCC(C)CCCC(C)C)C(Cc2ccccc2)C(O)C(O)C1Cc1ccccc1 (stereo not shown) [Example 1N],Ki,"[2]; Table 1a, read-out: Ki",0.01 to 1 µM
CC(C)=CCCC(C)=CCN1C(=O)N(CC=C(C)CCC=C(C)C)C(Cc2ccccc2)C(O)C(O)C1Cc1ccccc1 (stereo not shown) [Example 1K],Ki,"[2]; Table 1a, read-out: Ki",> 1 µM
C=CCN1C(=O)N(CC=C(C)C)C(Cc2ccccc2)C(O)C(O)C1Cc1ccccc1 (stereo not shown) [Example 1AT],Ki,"[2]; Table 1a, read-out: Ki",< 0.01 µM
O=C1NC(Cc2ccccc2)C(O)C(O)C(Cc2ccccc2)N1 (stereo not shown) [Example 1E],Ki,"[2]; Table 1a, read-out: Ki",> 1 µM
O=C1N(Cc2ccccc2)C(Cc2ccccc2)C(O)C(O)C(Cc2ccccc2)N1Cc1ccccc1 (stereo not shown) [Example 1I],Ki,[2]; Ki,> 1 µM
O=C1N(Cc2cccc(O)c2)C(Cc2ccccc2)C(O)C(Cc2ccccc2)N1Cc1cccc(O)c1 (stereo not shown) [Example 22A],Ki,"[2]; Table 2k, read-out: Ki",0.01 to 1 µM
